From patent US20050059574A1 (priority 2000, published 2005)
Several values for one entry are separate records, joined by “and”; a condition that tells them apart may be missing. Identical values can stand only once.

Experiments:
[1] = tested on: dogs with electrically induced ventricular fibrillation; assay: Phase Ia (methodology section): fibrillation/defibrillation in dogs with T3a or epinephrine; type: in vivo, dog; conditions: individual dogs
Description: Phase 1a was dedicated towards developing the basic methodology in the initial experiments, manual chest compression (CPR) and an internal defibrillator were employed. Induction of ventricular fibrillation and defibrillation were problematic with the internal electrodes because of the size mismatch: electrodes designed for humans being used in a smaller sized animal. In later experiments, the internal system was replaced with an LV pacing catheter connected to AC current via a step-down transformer (to induce ventricular fibrillation), and a new external, “hands-off” defibrillator. The manual chest compression was replaced with a THUMPER CPR system.
In the experiments, T3a was given 30 seconds before defibrillation. Preferably, T3a injection was given 60 to 90 seconds after defibrillation.
The results section was divided into Phases Ia (n=9) and Ib (n=8). The hemodynamic data were not consistently available in Phase Ia as there was no spontaneous or induced recovery except for 3 animals. Use of T3a was limited to only 3 dogs in this phase although epinephrine was used in 5 of them. This phase was dedicated towards the development of the Phase Ib parameters.
HVS-02 Fibrillator and Defibrillator were used in the tests. The operating instructions for the HVS-02 Fibrillator and Defibrillator can be found in the Manual for HVS-02 Fibrillator and Defibrillator.
Phase Ia was dedicated towards developing the basic methodology. […] In 3 animals, the hemodynamic data after defibrillation were less than the pre-fibrillatory data. […] In the experiments, internal defibrillator was used for the preliminary experiments and T3a was given just before defibrillation (30 seconds). Moreover, THUMPER CPR was used in the last 2 dogs instead of manual CPR. Thumper CPR worked well and it was used for the subsequent T3a experiments of Phase Ib. Manual chest compression was maintained for another 5 minutes after defibrillation and T3a or epinephrine injections. Bolus epinephrine injection (100 μg/kg) was used in 5 random dogs.

[2] = tested on: dogs with electrically induced ventricular fibrillation; assay: Phase Ib: cardiac resuscitation of dogs after induced ventricular fibrillation (Thumper CPR, external defibrillation, T3a bolus into right ventricle); type: in vivo, dog; conditions: Post T3a (15 m), individual dogs
Description: All animals were fasted overnight and anesthesia was induced by intravenous sodium thiopental (Pentothal sodium 15-25 mg/kg). After intubation and ventilation by a ventilator (North American Dräger, Anesthesia and Ventilator, Model AVE-K, Serial No. 5033), anesthesia was maintained by 2% isoflurane (Isoflurane Vaporizer, R-Vapor, R-24045), and oxygen. ECG (Hewlett Packard Model No. 78346A). Oxygen saturation was monitored continuously. Preoperatively, all animals received Acepromazine maleate, 0.25-0.5 mg, I.M, lactated Ringer's solution was given intravenously (250 ml-350 ml/hr) during the procedure.
A 8.5Fr. catheter sheath was introduced into the right femoral artery and the side arm was connected to a fluid transducer for the continuous measurement of systemic arterial blood pressure. A 7Fr. Bipolar Multipurpose A-2 Electrode Catheter, 1 Lumelec™ (Lot no. 30395908, Catalog no. 528-724, Cordis, USA) tipped with pressure transducer with 2 side holes, 2 electrodes with an open end, 125 cm long, and 0.038 inch diameter, was advanced through the catheter sheath, and placed into the left ventricle. Continuous measurement of the systemic left ventricular pressure was obtained. Analog signals from the pressure transducers were obtained using an amplifier (PM-1000, CWE Inc., Ardmore, Pa.).
A 8.5Fr. catheter sheath was introduced into the right femoral vein and a 7Fr. MP A2, Multipurpose high flow catheter (catalog no. 527-742, Cordis, USA) with open end and side holes was placed into the right ventricle for T3a injections. Another 7Fr. catheter sheath was introduced into the left femoral artery and a 6Fr. pigtail catheter (catalog no. 527-654S, 110 cm, 155° angled) was placed into the descending aorta for the collection of aortic blood samples after T3a injections into the right ventricle. ECG (Hewlett-Packard, Model No. 78346A, Ser. No. 2320A00522) was continuously monitored. A temperature-monitoring device (T. SIN, Japan, designed for YSI series 400 thermistors), connected to the data acquisition system, was introduced into the external ears of all the animals to continuously measure body temperature.
The two distal ends of the 7Fr. Bipolar Multipurpose A-2 Electrode Catheter were connected to a Transformer. The electrical system can deliver 15V, 20 mA AC current through the pacing catheter system. The anesthesia was stopped. A venous blood sample from the right ventricle was obtained. Lid reflexes returned in several minutes.
The lid reflexes were checked by the finger method system and when frequent blinking of the lids was obtained, procedures for the ventricular fibrillation were carried out. […]
The force of compression necessary to achieve this baseline condition was recorded and not altered during subsequent provision of chest compressions. […]

[3] = tested on: purified cultured cardiac myocytes; conditions: 125I-T3 at 10^−8 M
[4] = Pharmacokinetic studies in a rodent model: serum T3 after single intramuscular bolus; type: in vivo, rat; conditions: rats; for Serum T3 level as % of the peak value: within 2 hours of injection
[5] = Serum total T3 levels after T3a bolus during cardiac resuscitation in dogs; type: in vivo, dog
Description: Subsequent blood samples were obtained from the arterial circulation at 0.5 to 1.5 minutes after the bolus injection, and also at 15 to 20 minutes and 30 minutes, respectively.
Before sending the blood sample for immunoassay, in each experiment all the blood samples were collected in red-topped serum separator tubes. The tubes were centrifuged at 2500 rpm on a tabletop centrifuge for 10 minutes at 4° C. to separate the cells from the serum. The blood samples were then stored and frozen at −4° C.

[6] = background statement; bound to thyroxine-binding globulin in human serum; cited from earlier work

With `CNC[C@H](O)c1ccc(O)c(O)c1` [Epi, epinephrine] the Recover ([1]; After D-Fib (+ drug)) was “No (2×) and Yes”, the “D. AoP” value ([1]; Post (15 m)) was 76.1 mmHg and the Recover ([1]; Post (15 m)) was “No (2×) and Yes”. For the same compound, the “S. AoP” value ([1]; Post (15 m)) was 89.3 mmHg, the “S. LVP” value ([1]; Post (15 m)) was 110.2 mmHg and the “D. AoP” value [2] was 64.0 mmHg. For the same compound, the Recover [2] was “Yes”, the “S. AoP” value [2] was 82.7 mmHg and the “S. LVP” value [2] was 103.0 mmHg.

With `N[C@@H](Cc1cc(I)c(Oc2ccc(O)c(I)c2)c(I)c1)C(=O)O` [T3, 3,5,3′-triiodothyronine] the “Time to detection of T3 in the nucleus of the cell” value [3] was no more than 5 min, the “Half-life of T3 in serum, 5 μg/kg versus 100 μg/kg” value ([4]; i.m.) was “identical” and the “Serum T3 level as % of peak values” ([4]; i.m., 24 hours after injection, within normal physiological range) was 10%. For the same compound, the “Serum T3 level as % of the peak value” ([4]; i.m., high dose 100 μg/Kg) was 64%, the “Serum T3 level as % of the peak value” ([4]; i.m., low dose 5 μg/Kg) was 90% and the “Time to peak serum T3 values” ([4]; intramuscular, 5 μg/Kg and 100 μg/Kg) was no more than 30 min. The “Time serum T3 levels were maintained at high level” value ([5]; 4 μg T3/kg) was 30 min, the “Serum T3 levels” value ([5]; 4 μg T3/kg, within 2 minutes of drug administration) was “greater than 9000 ng/dl” and the “Increase of serum T3 level over baseline” value ([5]; bolus 4 μg/kg, one minute after injection, baseline 87±6 ng/dl) was 100 fold.

For `NC(Cc1cc(I)c(Oc2cc(I)c(O)c(I)c2)c(I)c1)C(=O)O` (stereo not shown) [T4], the Half-life [6] is listed as 140 to 170 h.
